Experimental data as given in publication PMC13286198 (PLOS One, 2026).

Assay: Pharmacokinetic interaction study in rats, plasma by UPLC-MS/MS
Type: in vivo, Sprague–Dawley rats
Conditions: oral, n = 6
Protocol: The sample size for each group of rats was calculated using the resource equation method [27]. The doses were chosen by converting the clinically recommended doses for patients to animal doses. […] The value of Km represents the equivalent dose ratio between humans and rats, calculated based on body surface area. […] The following groups received control solvents corresponding to each drug for a duration of seven consecutive days. […] Conversely, remaining groups were treated with their respective drugs at the aforementioned doses for seven consecutive days. […] Blood samples were centrifuged at 3,500 rpm for 10 min, and the supernatant was collected and stored at -80°C until processing for UPLC-MS/MS. The induction of anesthesia was performed using 5% isoflurane, and the concentration was maintained at 2% throughout the blood collection process. The blood was extracted from the eye venous plexus by well-trained professionals to minimize the animal's suffering. Following blood collection, rat liver, intestinal and kidney tissues were collected for molecular analysis on the seventh day post-treatment with the corresponding drugs for each group. Before euthanizing the animals, they were required to fast for at least 12 hours. Using sodium pentobarbital (2 g/kg) to put the animals into a deep state of anesthesia, Collect the required tissue samples and the rats were euthanized by cervical dislocation. […] The temperature maintained at 40 by gradient elution. […] Aliquots (8 μL) of these redissolved samples were used into the UPLC-MS/MS system for subsequent analysis. […] Analysis was conducted in a non-compartmental model. The metrics such as the area under the concentration-time curve (AUC), maximum plasma concentration (Cmax), time to reach Cmax (Tmax), elimination half-life (t1/2), plasma clearance volume per time unit (CLz/F), apparent volume of distribution (Vz), and mean residence time (MRT) were expressed as mean ± standard deviation (SD). Comparisons corresponding test groups were conducted using SPSS 25.0 software (SPSS Inc., Chicago, IL, USA).

Row | Cmax (henagliflozin 1 mg/kg after telmisartan 8 mg/kg for 7 days) [ng/mL] | Vz (henagliflozin 1 mg/kg alone) [L/kg] | Cmax ((control of the henagliflozin study)) [ng/mL] | Structure (SMILES)
1 | 356.83 ± 59.55 | 3.87 ± 1.49 | – | CCOc1ccc(Cc2cc([C@@]34OC[C@@](CO)(O3)[C@@H](O)[C@H](O)[C@H]4O)ccc2Cl)cc1F [henagliflozin]
2 | – | – | 160.33 ± 24.57 | CCCc1nc2c(C)cc(-c3nc4ccccc4n3C)cc2n1Cc1ccc(-c2ccccc2C(=O)O)cc1 [telmisartan]
